These compounds were tested on VU0463271-induced phenotype (KCC2 inhibition) in zebrafish larvae (assay: animal or person). Settings: Danio rerio, read-out: in vivo EC50.
Protocol: To quantify the ability of the same drugs to reverse (or “rescue”) the phenotype caused by either 2.5 μM VU0463271 or 5 μM VU0240551, a rescue score between 0 (no rescue) and 1 (maximal theoretical rescue) was calculated (FIG. 2C). A rescue score incorporates and quantifies the degree of phenotypic reversal and the level of sedation in each concentration tested (see Materials and Methods below).
A diverse collection of 37,000 uncharacterized small molecules were used in a suppressor screen against either 2.5 μM VU0463271 (27,000 compounds) or 5 μM VU0240551 (10,000 compounds), along with 3,700 control wells treated with DMSO alone and 3,700 control wells treated with the KCC2 inhibitor. Each well of a 96-well plate containing at least about 8 zebrafish larvae was treated with a library compound or DMSO followed by treatment with the KCC2 inhibitor. Behavioral profiles pre- and post-treatment with the KCC2 inhibitor were evaluated using the behavioral assay battery described herein, and a detailed quantitative readout of about 15,000 time points was generated for each well. These behavioral profiles were used to calculate a screening score for each library compound, which incorporates and quantifies the rescue score and sedation index (see Materials and Methods).
In some cases, small molecules that alter the KCC2 inhibition phenotype may reverse the behavioral phenotype back to the normal, but could also elicit a new undesired phenotype, which is different from a normal behavior. To discriminate between these possibilities, vector algebra was used to compare each behavioral profile to the behavioral profile of DMSO-treated larvae and defined a value for the phenotypic distance from DMSO. The screen score of each compound was then plotted against its averaged phenotypic distance from DMSO (FIG. 3A) and MI (FIG. 3B) to filter out compounds that elicit a profile that is very different from the control one and compounds that reduce overall activity, respectively.
The reproducibility of the effects and the active concentration ranges of the 30 hits selected, as described above, were determined. Their rescue efficacies were retested in at least six concentrations and their rescue scores were also recalculated.
TT0023831 and six analogs were tested at a range of doses from 2.5-320 uM in a behavioral assay designed to assess the ability of compounds to suppress the effects of KCC2 inhibition. The graphs of FIG. 11 indicate the degree of suppression of the KCC2-inhibited phenotype, where a score of 1 represents complete restoration of KCC2-treated zebrafish to normal. […] Table 4 summarizes the estimated EC50 values and peak effect values for each compound.
A large number of fertilized zebrafish eggs (up to 20,000 embryos per day) were collected from group matings of wild type Ekkwill/Singapore zebrafish. Embryos were raised in hatching jars at 28° C. on a 14/10 hour light/dark cycle until 3 days post fertilization (dpf), then transferred to an incubator under the same conditions until 7 dpf. Groups of eight larvae (7 dpf) were distributed into the wells of a clear flat bottom square well 96-well plates filled with E3 medium (300 μl). Larvae were then incubated at 25° C. on the bench top for one-hour chemical treatment and subsequent experiments.
A library containing 37,000 uncharacterized small molecules was purchased from Life Chemicals and dissolved in DMSO at a stock concentration of 10 mM.
`COc1cc(C)c(Br)cc1S(=O)(=O)NCCN1CCOCC1` [TT0027052, 5-bromo-2-methoxy-4-methyl-N-(2-morpholinoethyl)benzene-sulfonamide] was tested, and the EC50 was 5 µM. With `COc1cc(C)c(C)cc1S(=O)(=O)NCCN1CCOCC1` [TT0038280, 2-methoxy-4,5-dimethyl-N-(2-morpholinoethyl)benzene-sulfonamide] the EC50 was 40 µM. In the case of `CCOc1ccc(Br)cc1S(=O)(=O)NCCN1CCOCC1` [TT0048134, 5-bromo-2-ethoxy-N-(2-morpholinoethyl)benzene-sulfonamide], the EC50 is reported as 15 µM. `COc1cc(C)c(C(C)C)cc1S(=O)(=O)NCC1CCCO1` (centres unmarked) [TT0048274, 5-isopropyl-2-methoxy-4-methyl-N-((tetrahydrofuran-2-yl)methyl)benzenesulfonamide] was tested, and the EC50 was > 160 µM. `COc1ccc(C(C)C)cc1S(=O)(=O)NCCN1CCOCC1` [TT0048803, 5-isopropyl-2-methoxy-N-(2-morpholinoethyl)benzene-sulfonamide] was tested, and the EC50 was < 5 µM. `COc1cc(S(=O)(=O)NCCN2CCOCC2)c(OC)cc1C` [TT0048874, 2,5-dimethoxy-4-methyl-N-(2-morpholinoethyl)benzene-sulfonamide] showed an EC50 of 40 µM.

Same assay, conditions: concentration of peak effect; doses 2.5-320 uM; suppression of KCC2-inhibited phenotype in zebrafish
With `COc1cc(C)c(Br)cc1S(=O)(=O)NCCN1CCOCC1` [TT0027052, 5-bromo-2-methoxy-4-methyl-N-(2-morpholinoethyl)benzene-sulfonamide] the peak activity was 20 µM. `COc1cc(C)c(C)cc1S(=O)(=O)NCCN1CCOCC1` [TT0038280, 2-methoxy-4,5-dimethyl-N-(2-morpholinoethyl)benzene-sulfonamide] showed a peak activity of 80 µM. With `CCOc1ccc(Br)cc1S(=O)(=O)NCCN1CCOCC1` [TT0048134, 5-bromo-2-ethoxy-N-(2-morpholinoethyl)benzene-sulfonamide] the peak activity was 20 µM. For `COc1cc(C)c(C(C)C)cc1S(=O)(=O)NCC1CCCO1` (centres unmarked) [TT0048274, 5-isopropyl-2-methoxy-4-methyl-N-((tetrahydrofuran-2-yl)methyl)benzenesulfonamide], the peak activity was >160 µM. Compound `COc1ccc(C(C)C)cc1S(=O)(=O)NCCN1CCOCC1` [TT0048803, 5-isopropyl-2-methoxy-N-(2-morpholinoethyl)benzene-sulfonamide] has a peak activity of 20 µM. Compound `COc1cc(S(=O)(=O)NCCN2CCOCC2)c(OC)cc1C` [TT0048874, 2,5-dimethoxy-4-methyl-N-(2-morpholinoethyl)benzene-sulfonamide] has a peak activity of 160 µM.

Same assay, conditions: phenotype caused by 2.5 μM VU0463271 or 5 μM VU0240551; at least six concentrations
In the case of `Cc1ccsc1C(=CCCN1CCC[C@@H](C(=O)O)C1)c1sccc1C` [tiagabine, reference compound], the “rescue of the behavioral profile induced by KCC2 inhibition (rescue score 0-1)” value is reported as “most effective”.

Same assay, conditions: zebrafish; FIG. 8 / FIG. 10
`CCCOc1nn(CCC)cc1C(=O)Nc1ccc(C(F)(F)F)c(F)c1` [TT0000367, N-(3-fluoro-4-(trifluoromethyl)phen-yl)-3-propoxy-1-propyl-1H-pyrazole-4-carboxamide] was tested, and the “suppression score dose response compared with other compounds as suppressor of the hyperexcitability phenotype” value was “outperform the other compounds tested”.

Each compound was assayed on PTZ-induced behavior in zebrafish larvae (assay: Suppression of PTZ-induced behavior in zebrafish larvae). Settings: pre-treatment, 160 μM; data not shown.
Assay type: in vivo
Protocol: Differences between behavioral profiles of larval zebrafish treated with KCC2 inhibitors and larval zebrafish treated with PTZ were investigated by evaluating the ability of traditional anti-seizure drugs to reverse their effects. Five drugs in at least six concentrations (by allocating 12 wells per concentration) were tested. These drugs included a benzodiazepine anxiolytic (diazepam), two AEDs that increase GABA levels in the synapse (tiagabine and valproate), a sodium channel blocker (phenytoin) and a synthetic neurosteroid GABAA positive allosteric modulator (PAM, ganaxolone).
For `O=C1NC(=O)C(c2ccccc2)(c2ccccc2)N1` [phenytoin], the “prevention of the formation of the PTZ-induced behavior” value (“prevention” for short) was “almost no effect”.

Same assay, conditions: pre-treatment, non-sedative concentration 0.31 μM; data not shown
For `CC(=O)[C@H]1CC[C@H]2[C@@H]3CC[C@H]4C[C@](C)(O)CC[C@]4(C)[C@H]3CC[C@]12C` [ganaxolone], the “prevention” value was “almost completely prevented”.

Same assay, conditions: pre-treatment, non-sedative concentration 40 μM; data not shown
`Cc1ccsc1C(=CCCN1CCC[C@@H](C(=O)O)C1)c1sccc1C` [tiagabine, reference compound] was tested, and the “prevention” value was “almost completely prevented”.

What follows are compounds tested against T1, Kv7.2/7.3 (KCNQ2/3) (Homo sapiens, UniProt O43525+O43526) (assay: CHO-Kv7.2/7.3 (KCNQ2/3) 86Rb efflux assay). Settings: 10-point CRC 0.001-30 μM, n=2; fit with maximum activation set at 100% of 70 mM KCl control; read-out: EC50.
T1 construct: expressed in transfected cells; host or cells: CHO
Assay type: cell-based
Protocol: Compounds were tested at concentrations from 0.001 μM to 30 μM to generate 10-point concentration-response curve (CRC) (n=2). Retigabine and ML213 were included as control activators of Kv7.2/7.3 (KCNQ2/3). Data was normalized to ^86Rb flux elicited by application of extracellular buffer containing 70 mM KCl.
Data were fit with “maximum activation” set at 100% of 70 mM KCl control stimulus.
For `CCCOc1nn(CCC)cc1C(=O)Nc1ccc(C(F)(F)F)c(F)c1` [TT0000367, N-(3-fluoro-4-(trifluoromethyl)phen-yl)-3-propoxy-1-propyl-1H-pyrazole-4-carboxamide], the EC50 was > 30 µM.

Same assay, conditions: 86Rb flux normalized to 70 mM KCl control; read-out: Max Flux %
In the case of `CCCOc1nn(CCC)cc1C(=O)Nc1ccc(C(F)(F)F)c(F)c1` [TT0000367, N-(3-fluoro-4-(trifluoromethyl)phen-yl)-3-propoxy-1-propyl-1H-pyrazole-4-carboxamide], the Emax is reported as 21%.

Same assay, conditions: Table 7, first line of values; read-out: EC50 (μM, raw)
With `CCCOc1nn(CCC)cc1C(=O)Nc1ccc(C(F)(F)F)c(F)c1` [TT0000367, N-(3-fluoro-4-(trifluoromethyl)phen-yl)-3-propoxy-1-propyl-1H-pyrazole-4-carboxamide] the EC50 was > 30 µM.

Same assay, conditions: Table 7, second, unlabelled line of values; read-out: EC50 (μM, raw)
`CCCOc1nn(CCC)cc1C(=O)Nc1ccc(C(F)(F)F)c(F)c1` [TT0000367, N-(3-fluoro-4-(trifluoromethyl)phen-yl)-3-propoxy-1-propyl-1H-pyrazole-4-carboxamide] was tested, and the EC50 was > 30 µM.

Same assay, conditions: concentration at which maximal 86Rb flux was seen
`CCCOc1nn(CCC)cc1C(=O)Nc1ccc(C(F)(F)F)c(F)c1` [TT0000367, N-(3-fluoro-4-(trifluoromethyl)phen-yl)-3-propoxy-1-propyl-1H-pyrazole-4-carboxamide] was tested, and the “Conc μM @ Max Flux” value was 0.01 µM.

Same assay, conditions: fit; maximum activation set at 100% of 70 mM KCl control stimulus
`CCCOc1nn(CCC)cc1C(=O)Nc1ccc(C(F)(F)F)c(F)c1` [TT0000367, N-(3-fluoro-4-(trifluoromethyl)phen-yl)-3-propoxy-1-propyl-1H-pyrazole-4-carboxamide] was tested, and the “Fitted Max %” value was 100%.

From patent US20180161310A1, “COMPOUNDS AND METHODS FOR THE TREATMENT OF NEUROLOGICAL DISORDERS” (Teleos Therapeutics, LLC, priority 2016, published 2018)
